The compounds below were run against Insulin-like growth factor 1 receptor (Homo sapiens, UniProt P08069) (assay: Biologic and Pharmacologic Assay).
Method: The media was removed and replaced by 50 μL of 1× lysis buffer from the AlphaLISA kit (with 1× of cOmplete™ protease inhibitor). The plates were sealed, and cells were allowed to lyse for 10 min in the shaker before storing the plate at −20° C. until used. The AlphaLISA assay with processed cell lysates were performed as described in the protocol. Briefly, 10 μL of the undiluted sample were loaded to 384 well Optiplates and 5 μL of the acceptor mix (as described in the AlphaLISA kit) was added to each well. The plates were sealed and briefly vortexed followed by the incubation at RT for 3 hours. In the dark, 5 μL of donor mix was added to each well. All plates were sealed and stored at RT overnight. The plates were read in EnVision reader using standard AlphaLISA settings.Compound activity was analyzed using CBIS data analysis suite (ChemInnovation, CA).

Chain of Insulin-like growth factor 1 receptor (P08069 31-736 limits assumed): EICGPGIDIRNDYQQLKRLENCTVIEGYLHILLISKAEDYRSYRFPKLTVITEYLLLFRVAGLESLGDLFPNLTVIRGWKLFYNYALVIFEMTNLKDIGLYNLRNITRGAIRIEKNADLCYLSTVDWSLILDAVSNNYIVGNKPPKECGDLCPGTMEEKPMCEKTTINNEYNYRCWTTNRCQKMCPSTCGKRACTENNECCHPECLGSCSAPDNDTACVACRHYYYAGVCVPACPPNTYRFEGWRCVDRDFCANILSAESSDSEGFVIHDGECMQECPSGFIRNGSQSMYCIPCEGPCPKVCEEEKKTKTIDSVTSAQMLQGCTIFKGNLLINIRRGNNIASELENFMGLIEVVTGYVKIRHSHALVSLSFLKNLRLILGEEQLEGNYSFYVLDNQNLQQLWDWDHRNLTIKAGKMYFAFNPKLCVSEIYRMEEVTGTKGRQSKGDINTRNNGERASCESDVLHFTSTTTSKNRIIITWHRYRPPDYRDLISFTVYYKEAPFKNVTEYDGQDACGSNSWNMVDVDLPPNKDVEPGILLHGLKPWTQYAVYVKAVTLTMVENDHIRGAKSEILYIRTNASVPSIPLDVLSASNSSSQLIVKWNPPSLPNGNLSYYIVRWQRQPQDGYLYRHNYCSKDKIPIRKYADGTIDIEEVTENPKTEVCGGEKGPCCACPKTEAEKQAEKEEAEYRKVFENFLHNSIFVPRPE
Chain of Insulin-like growth factor 1 receptor (P08069 741-1367 limits assumed): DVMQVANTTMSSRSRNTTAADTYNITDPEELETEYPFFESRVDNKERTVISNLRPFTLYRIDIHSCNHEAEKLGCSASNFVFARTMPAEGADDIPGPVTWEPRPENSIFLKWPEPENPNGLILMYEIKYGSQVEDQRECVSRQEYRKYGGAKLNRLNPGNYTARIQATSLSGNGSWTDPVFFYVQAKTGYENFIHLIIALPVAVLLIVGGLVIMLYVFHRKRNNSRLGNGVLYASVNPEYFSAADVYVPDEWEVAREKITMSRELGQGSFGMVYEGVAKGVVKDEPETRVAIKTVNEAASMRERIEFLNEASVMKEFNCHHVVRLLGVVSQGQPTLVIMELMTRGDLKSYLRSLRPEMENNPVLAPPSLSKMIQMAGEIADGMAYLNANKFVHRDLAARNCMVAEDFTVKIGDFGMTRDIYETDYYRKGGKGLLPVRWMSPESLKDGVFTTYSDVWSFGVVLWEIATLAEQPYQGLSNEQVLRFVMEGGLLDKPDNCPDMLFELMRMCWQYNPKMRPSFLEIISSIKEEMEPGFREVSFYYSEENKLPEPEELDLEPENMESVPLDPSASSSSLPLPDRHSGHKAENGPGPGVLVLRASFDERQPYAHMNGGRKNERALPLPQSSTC

SMILES | IC50
COc1cc(Nc2nccc(Nc3cnc4ccccc4c3)n2)ccc1N1CCC(N2CCCCC2)CC1 [US20250171431, Compound 1] | < 500 nM
COc1cc(Nc2nccc(Nc3cc4cccc(F)c4[nH]c3=O)n2)ccc1C1CCNCC1(F)F (stereo not given) [US20250171431, Compound 208] | < 500 nM
COc1cc(Nc2nccc(Nc3cnc4ccc(C#N)cc4c3)n2)ccc1OCCCN1CCCCC1 [US20250171431, Compound 392] | < 500 nM
COc1cc(N2CCN(C)CC2)ncc1Nc1nccc(Nc2cc3cccc(F)c3nc2O)n1 [US20250171431, Compound 91] | < 500 nM
COc1cc(Nc2nccc(Nc3cnc4ccc(Cl)cc4c3)n2)cnc1N1CCNC(C(F)F)C1 (stereo not given) [US20250171431, Compound 483] | < 500 nM
COc1cc(Nc2nccc(Nc3cc4cccc(F)c4[nH]c3=O)n2)cnc1N1CCC(N(C)C)CC1 [US20250171431, Compound 164] | < 500 nM
COc1cc(Nc2nccc(Nc3cnc4cc(Cl)ccc4c3)n2)ccc1OCCCN1CCCCC1 [US20250171431, Compound 428] | < 500 nM
O=S1(=O)CCN([C@H]2CC[C@@H](Oc3ccc(Nc4nccc(Nc5cnc6ccc(Cl)cc6c5)n4)cc3)CC2)CC1 [US20250171431, Compound 309] | < 500 nM
COc1cc(C2CCNCC2(F)F)ccc1Nc1nccc(Nc2cc3cccc(F)c3[nH]c2=O)n1 (stereo not given) [US20250171431, Compound 222] | < 500 nM
COc1cc(Nc2nccc(Nc3cnc4cncc(F)c4c3)n2)cnc1O[C@H]1C[C@@H](N(C)C)C1 [US20250171431, Compound 88] | < 500 nM
COc1cc(Nc2nccc(Nc3cc4cccc(F)c4nc3O)n2)cnc1O[C@@H]1C[C@H](N(C)C)C1(C)C [US20250171431, Compound 253] | > 10000 nM

Further lines, results first:

IC50 | SMILES
< 500 nM | COc1cc(Nc2nccc(Nc3cc4c(F)cccc4[nH]c3=O)n2)ccc1O[C@H]1C[C@@H](N(C)C)C1 [US20250171431, Compound 123]
> 10000 nM | COc1cc(Nc2nccc(Nc3cc4ccccc4nc3C#N)n2)cnc1O[C@H]1C[C@@H](N(C)C)C1 [US20250171431, Compound 269]
< 500 nM | COc1cc(Nc2nccc(Nc3cnc4c(Cl)cccc4c3)n2)ccc1O[C@H]1C[C@@H](N(C)C)C1 [US20250171431, Compound 344]
< 500 nM | COc1cc(Nc2nccc(Nc3cc4cc(Cl)ccc4[nH]c3=O)n2)ccc1O[C@H]1CC[C@@H](N(C)C)CC1 [US20250171431, Compound 247]
< 500 nM | COc1cc(Nc2nccc(Nc3cc(F)c4ncc(Br)cc4c3)n2)ccc1O[C@H]1C[C@@H](N(C)C)C1 [US20250171431, Compound 133]
500 to 2000 nM | COc1cc(Nc2nccc(Nc3cnc4c(c3)OC(C)(C)C(=O)N4)n2)ccc1O[C@H]1C[C@@H](N(C)C)C1 [US20250171431, Compound 288]
< 500 nM | COc1cc(Nc2nccc(Nc3cnc4ccccc4c3)n2)ccc1N1CCC(N(C)C)CC1 [US20250171431, Compound 95]
< 500 nM | COc1cc(Nc2nccc(Nc3ccc(C4CC4)nc3C(N)=O)n2)ccc1O[C@H]1C[C@@H](N(C)C)C1 [US20250171431, Compound 124]
< 500 nM | COc1cc(Nc2nccc(Nc3ccc4ncc(Cl)nc4c3)n2)ccc1O[C@H]1C[C@@H](N(C)C)C1 [US20250171431, Compound 134]

From BindingDB's records for patent US20250171431 (Horizon Therapeutics Ireland Dac, 2025)
